From PMC3243762 (Clinical cancer research : an official journal of the …, 2011)
Where “and” joins values, the source holds several entries; their conditions need not be identical. Identical values can stand only once. Like-named read-outs stand apart in the source and are kept apart here.

What was measured:
[1] = system: PSMA+ PC3 PIP and PSMA− PC3 flu xenografts; settings: for Biodistribution, Bladder (empty) / Biodistribution, Blood / Biodistribution, Bone / Biodistribution, Heart / Biodistribution, Kidney / Biodistribution, Liver / Biodistribution, Lung / Biodistribution, Muscle / Biodistribution, PSMA+ PIP tumor / Biodistribution, PSMA− flu tumor / Biodistribution, Pancreas / Biodistribution, Spleen / Biodistribution, Stomach / Biodistribution, lrg. Intest / Biodistribution, sm. Intest: iv, n = 4
[2] = Human radiation dosimetry estimates
[3] = human source organ, from mouse data

## O=C(O)CCC(NC(=O)NC(CCCCNC(=O)c1ccc([18F])nc1)C(=O)O)C(=O)O (centres unmarked) [[^18F]DCFPyL, 2-(3-{1-Carboxy-5-[(6-[^18F]fluoro-pyridine-3-carbonyl)-amino]-pentyl}-ureido)-pentanedioic acid]
[1]; 30 min pi
  Biodistribution, Bladder (empty): 18.6± 18.1 % ID/g
  Biodistribution, Blood: 1.53±0.19 % ID/g
  Biodistribution, Bone: 0.82 ±0.16 % ID/g
  Biodistribution, Heart: 0.68 ±0.07 % ID/g
  Biodistribution, Kidney: 74.1 ±6.6 % ID/g
  Biodistribution, Liver: 3.88 ±0.74 % ID/g
  Biodistribution, Lung: 1.91 ±0.47 % ID/g
  Biodistribution, Muscle: 0.39 ±0.05 % ID/g
  Biodistribution, PSMA+ PIP tumor: 46.7 ±5.8 % ID/g
  Biodistribution, PSMA− flu tumor: 1.17 ±0.41 % ID/g
  Biodistribution, Pancreas: 1.02 ±0.53 % ID/g
  Biodistribution, Spleen: 7.59 ±3.56 % ID/g
  Biodistribution, Stomach: 1.50±1.12 % ID/g
  Biodistribution, lrg. Intest: 0.73 ±0.04 % ID/g
  Biodistribution, sm. Intest: 0.79 ±0.11 % ID/g
[1]; 60 min pi
  Biodistribution, Bladder (empty): 9.88 ±4.92 % ID/g
  Biodistribution, Blood: 0.24 ±0.05 % ID/g
  Biodistribution, Bone: 0.42 ±0.15 % ID/g
  Biodistribution, Heart: 0.20 ±0.11 % ID/g
  Biodistribution, Kidney: 42.3 ±19.0 % ID/g
  Biodistribution, Liver: 2.87 ±0.92 % ID/g
  Biodistribution, Lung: 0.55 ±0.17 % ID/g
  Biodistribution, Muscle: 0.61 ±0.92 % ID/g
  Biodistribution, PSMA+ PIP tumor: 44.2 ±9.7 % ID/g
  Biodistribution, PSMA− flu tumor: 0.36 ±0.14 % ID/g
  Biodistribution, Pancreas: 0.26 ±0.13 % ID/g
  Biodistribution, Spleen: 2.70 ±1.28 % ID/g
  Biodistribution, Stomach: 0.35 ±0.34 % ID/g
  Biodistribution, lrg. Intest: 0.40 ±0.17 % ID/g
  Biodistribution, sm. Intest: 0.31 ±0.12 % ID/g
[1]; 120 min pi
  Biodistribution, Bladder (empty): 6.44 ±4.42 % ID/g
  Biodistribution, Blood: 0.43 ±0.37 % ID/g
  Biodistribution, Bone: 0.33 ±0.08 % ID/g
  Biodistribution, Heart: 0.06 ±0.01 % ID/g
  Biodistribution, Kidney: 15.7 ±3.3 % ID/g
  Biodistribution, Liver: 2.1 % ID/g
  Biodistribution, Lung: 0.18 ±0.02 % ID/g
  Biodistribution, Muscle: 0.04 ±0.00 % ID/g
  Biodistribution, PSMA+ PIP tumor: 39.4 ±5.4 % ID/g
  Biodistribution, PSMA− flu tumor: 0.11 ±0.02 % ID/g
  Biodistribution, Pancreas: 0.08 ±0.00 % ID/g
  Biodistribution, Spleen: 0.69 ±0.11 % ID/g
  Biodistribution, Stomach: 0.08 ±0.03 % ID/g
  Biodistribution, lrg. Intest: 0.12 ±0.05 % ID/g
  Biodistribution, sm. Intest: 0.11 ±0.07 % ID/g
[1]; 120 min pi, listed as [^18F]3
  Biodistribution, Liver: 2.14±0.11 % ID/g
[1]; 240 min pi
  Biodistribution, Bladder (empty): 1.54 ±1.79 % ID/g
  Biodistribution, Blood: 0.03 ±0.01 % ID/g
  Biodistribution, Bone: 0.43 ±0.06 % ID/g
  Biodistribution, Heart: 0.02 ±0.00 % ID/g
  Biodistribution, Liver: 1.80 ±0.39 % ID/g
  Biodistribution, Lung: 0.06 ±0.00 % ID/g
  Biodistribution, Muscle: 0.05 ±0.05 % ID/g
  Biodistribution, PSMA+ PIP tumor: 36.6 ±4.3 % ID/g
  Biodistribution, PSMA− flu tumor: 0.03 ±0.01 % ID/g
  Biodistribution, Pancreas: 0.03 ±0.01 % ID/g
  Biodistribution, Spleen: 0.23 ±0.09 % ID/g
  Biodistribution, Stomach: 0.02 ±0.00 % ID/g
  Biodistribution, lrg. Intest: 0.06 ±0.01 % ID/g
  Biodistribution, sm. Intest: 0.05 ±0.01 % ID/g
[1]; 240 min pi, listed as [^18F]3
  Biodistribution, Kidney: 7.42 ±0.89 % ID/g
[1]; at all time points
  Bone uptake: < 1 % ID/g
[1]; at or after 1 h post-injection
  Non-target tissue uptake: minimal non-target tissue uptake
[1]; from 30 min pi over the ensuing 4 h
  Decrease of PSMA+ PC3 PIP xenograft uptake: about 10%
[2]; estimated human
  Absorbed dose, Total body: 5.71E-03 mGy/MBq
  Effective dose: 1.36E-02 mSv/MBq
  Effective dose equivalent: 1.80E-02 mSv/MBq
[2]; estimated human target organ
  Absorbed dose, Adrenals: 6.46E-03 mGy/MBq
  Absorbed dose, Brain: 4.84E-03 mGy/MBq
  Absorbed dose, Breasts: 3.97E-03 mGy/MBq
  Absorbed dose, Gallbladder wall: 6.48E-03 mGy/MBq
  Absorbed dose, Heart wall: 3.26E-03 mGy/MBq
  Absorbed dose, Kidneys: 0.05 mGy/MBq and 4.81E-02 mGy/MBq
  Absorbed dose, Liver: 7.38E-03 mGy/MBq
  Absorbed dose, Lower large intestine wall: 9.40E-03 mGy/MBq
  Absorbed dose, Lungs: 3.01E-03 mGy/MBq
  Absorbed dose, Muscle: 3.95E-03 mGy/MBq
  Absorbed dose, Osteogenic cells: 7.59E-03 mGy/MBq
  Absorbed dose, Ovaries: 9.06E-03 mGy/MBq
  Absorbed dose, Pancreas: 4.38E-03 mGy/MBq
  Absorbed dose, Red marrow: 5.35E-03 mGy/MBq
  Absorbed dose, Skin: 3.84E-03 mGy/MBq
  Absorbed dose, Small intestine: 7.53E-03 mGy/MBq
  Absorbed dose, Spleen: 6.57E-03 mGy/MBq
  Absorbed dose, Stomach wall: 5.27E-03 mGy/MBq
  Absorbed dose, Testes: 7.06E-03 mGy/MBq
  Absorbed dose, Thymus: 4.43E-03 mGy/MBq
  Absorbed dose, Thyroid: 4.45E-03 mGy/MBq
  Absorbed dose, Upper large intestine wall: 6.67E-03 mGy/MBq
  Absorbed dose, Urinary bladder wall: 0.15 mGy/MBq and 1.51E-01 mGy/MBq
  Absorbed dose, Uterus: 1.45E-02 mGy/MBq
[2]; human source organ, dynamic voiding bladder model, one hour voiding interval
  Time-integrated activity coefficient, Urinary bladder contents: 3.09E-01 MBq-h/MBq
[2]; [3]
  Time-integrated activity coefficient, Heart wall: 3.97E-04 MBq-h/MBq
  Time-integrated activity coefficient, Kidneys: 7.47E-02 MBq-h/MBq
  Time-integrated activity coefficient, Liver: 4.09E-02 MBq-h/MBq
  Time-integrated activity coefficient, Lower large intestine: 4.23E-04 MBq-h/MBq
  Time-integrated activity coefficient, Lungs: 3.52E-03 MBq-h/MBq
  Time-integrated activity coefficient, Muscle: 4.50E-02 MBq-h/MBq
  Time-integrated activity coefficient, Pancreas: 1.48E-04 MBq-h/MBq
  Time-integrated activity coefficient, Small intestine: 1.30E-03 MBq-h/MBq
  Time-integrated activity coefficient, Spleen: 2.98E-03 MBq-h/MBq
  Time-integrated activity coefficient, Stomach: 3.36E-04 MBq-h/MBq
  Time-integrated activity coefficient, Upper large intestine: 4.23E-04 MBq-h/MBq
[2]; human, remainder of body, from mouse data
  Time-integrated activity coefficient, Remainder: 8.51E-01 MBq-h/MBq
